Test results: patent publication US20220348877A1, “GENERATION OF QUIESCENT CARDIAC FIBROBLASTS FROM HUMAN INDUCED PLURIPOTENT STEM CELLS FOR IN VITRO MODELING OF CARDIAC FIBROSIS” (The Board of Trustees of the Leland Stanford Junior …, priority 2019, published 2022)
“Also recorded” adds a separate entry of the source.

Experiments:
human iPSC-CFs [1] = test: CF differentiation and passaging in the presence of TGF-β inhibitor; format: cell-based
Description: Differentiation of human iPSC-derived cardiac fibroblasts. Human iPSCs were treated with 6 μM of CHIR99021 for 2 days, recovered in RPMI+B27-insulin for 24 hrs, treated with 5 μM of IWR-1 (10161, Sigma) for 2 days, and then RPMI+B27-insulin for another 24 hrs. On day 6, human induced pluripotent stem cell-derived cardiac progenitor cells (iPSC-CPCs) were re-plated at a density of 20,000 cells/cm2 in advanced DMEM medium (12634028, Gibco®, Life Technologies). On day 7 or 8, cells were treated with 5 μM of CHIR99021 and 2 μM of retinoic acid (R2625, Sigma-Aldrich) for 2 days, and recovered in advanced DMEM for 3 days. Typically, the purity of human induced pluripotent stem cell-derived epicardial cells (iPSC-EPCs) is >90% (WT1+). Human iPSC-EPCs were re-plated and treated with […] (100-18B, PeproTech) and 10 μM of SB431542 (S1067, Selleck chemicals) in a fibroblast growth medium for another 6 days. >90% purity of iPSC-CFs (COL-I+/DDR2+/TCF21+) can be achieved as assessed by FACS. Cultures were maintained in a humidified atmosphere (95% air, 5% CO2) at 37° C.
Differentiation of Quiescent Cardiac Fibroblasts from iPSC Derived Epicardial Cells. 1. On day 14, prepare fibroblast growth medium containing 20 ng/ml of FGF2 and 10 μM of SB431542. 2. Aspirate the spent medium, add 1 ml of Accutase per well in a 6-well plate, and incubate the plate in a […], 5% CO2 incubator for 5 min. […]

human iPSC-CFs [2] = test: Immunoblotting of α-SMA in drug-treated iPSC-CFs; format: cell-based
Description: (§1) Immunoblotting and quantification. Cultured cells were homogenized in the RIPA buffer with proteinase and phosphatase inhibitor cocktails (78440, ThermoFisher), and quantified by Pierce™ BCA Protein Assay Kit (Pierce Biotechnology Inc.). A total of 20 μg protein was separated on NuPAGE® Novex® 4-12% Bis-Tris Protein Gels (Invitrogen, Carlsbad, Calif.). After being transferred to Amersham™ Hybond™ Blotting Membranes (GE Healthcare), proteins were incubated with primary antibodies against α-SMA (ab7817, Abcam), periostin (ab14041, Abcam), collagen Ill (ab7778, Abcam), fibronectin (ab6328, Abcam), MYH7 (sc-53089, Santa Cruz), and GAPDH (MA5-15738, Invitrogen). Band intensities for target bands were analyzed and quantified by the ImageJ Fuji program.
(§2) Drug treatment. Unless otherwise stated, cells were treated with all drugs for 48 hrs. We used 5 ng/ml of TGFβ1 (240-B-010, R&D) to activate iPSC-CFs. Due to the short half-life, BNP (CYT-369, Prospec) was added into the medium three times a day. We used 20 μM of sacubitril (SML1380, Sigma) to inhibit ANP/BNP degradation. We used pirfenidone (S2907, Selleck Chemicals) and doxorubicin (25316-40-9, Selleck Chemicals) to test their anti-fibrotic and pro-fibrotic effects on iPSC-CFs, respectively.

human iPSC-CFs [3] = test: Flow cytometry (FACS) of α-SMA+ myofibroblast population; format: cell-based; conditions: for effect on TGF-β-induced upregulation of α-SMA / propagation of the α-SMA+ population: in presence of TGF-β, FIG. 5I
Description: Fluorescence-activated cell sorting (FACS) analysis. Cells were dissociated into singlets by TrypLE™ (12605, Gibco) for 10 min at 37° C., and the cell suspension was filtered through a 40-μm cell strainer (BD Falcon, San Diego) to remove cell clumps. Single cells were fixed and permeabilized by BD CytofixCytoperm™ buffer (BD 554722) for 20 min at 4° C. Next, cells were incubated with primary antibodies followed by Alexa Fluor™ secondary antibodies (Invitrogen). Primary antibodies against COLI (ab90395, Abcam), DDR2 (sc-81707, Santa Cruz), TCF21 (hpa013189, Sigma-Aldrich), α-SMA (ab7817, Abcam), and WT1 (ab89901, Abcam) were used. The percentage of fibroblasts was calculated as the ratio of TCF21+, DDR2+, and COL-1+ cells in the whole population, respectively. The percentage of myofibroblasts was calculated as the ratio of α-SMA+ cells in the whole population.
as §2

human iPSC-CFs [4] = test: Collagen gel contraction assay; format: cell-based; conditions: gels imaged after 24 hrs
Description: Gel contraction assay. Collagen gel contraction assays were performed in three independent lines of iPSC-CFs (2.0×10^5 cells per well) using a Cell Contraction Assay kit (CBA5020, Cell Biolabs) as per the manufacturer's protocol. The cells were treated in the absence or presence of TGF-β±a TGF-β inhibitor SB431542 (SB). The gels were imaged after 24 hrs and gel area was quantified using ImageJ software (version 1.49).

human iPSC-CFs [5] = test: Quantitative real-time PCR of gene expression in drug-treated iPSC-CFs; format: cell-based
Description: (§3) Quantitative real-time PCR. Total RNA was isolated using the Qiagen miRNeasy Mini Kit (Qiagen Sciences, Inc, Germantown, Md.) following the manufacturer's instruction. For reverse transcription, a High Capacity RNA-to-cDNA kit (Life Technologies) was used, and the cDNA template was synthesized based on 1 μg of total mRNA. After mixing 0.2 μl of the cDNA template, 1 μl of TaqMan® primer sets (Life Technologies), 10 μl of TaqMan® Master Mix (Life Technologies), and 8.8 μl of ddH2O in the reaction system, real-time quantitative PCR was performed on the StepOne™ Real-Time PCR System (Life Technologies). Each reaction was run in triplicate. Expression values were normalized to the average expression of GAPDH.
as §2

[6] = system: human iPSC-CFs co-cultured with iPSC-CMs; test: Indirect co-culture of iPSC-CFs with iPSC-CMs in the presence of TGF-β ± sacubitril (qPCR, immunoblot); format: cell-based
Description: as §3, §1, §2
Indirect and direct contact co-culture. […] As a control, iPSC-CMs were co-cultured with iPSC-CMs in the transwells. The co-cultures were incubated at 37° C. and 5% CO2 before analysis. For direct contact co-culture, we first labeled fibroblasts and iPSC-CMs with CFSE (C34554, Thermo Fischer) and Far cell trace red (C34564, Thermofisher) dyes, respectively. Then, iPSC-CFs were seeded on top of the iPSC-CM monolayer at a ratio of 1:5, allowing for direct cell-cell contact. After 5 days of co-culture, the two cell types were separated by FACS sorting for downstream molecular analyses. The medium used for co-culture is the mixture of RPMI+B27 and fibroblast growth medium at a ratio of 3:1.

[7] = circulatory system; degrading enzyme neprilysin; cited from earlier work
primary CFs = test: Sirius red colorimetric assay of secreted collagen, primary CFs; format: cell-based, human; conditions: 48 hrs
Description: (§4) Human primary skin, cardiac, lung, bladder fibroblast, and brain pericyte cultures. Human primary cardiac fibroblasts were isolated and cultured as follows: a piece of fresh right atrial biopsy was weighed, minced into small pieces (1-2 mm^3), and digested in 6-well peri-dishes as described. Human primary cardiac fibroblasts were grown and maintained in a fibroblast growth medium (C-23025, Promocell) supplemented with 1% penicillin-streptomycin (15140-122, Gibco) in a humidified atmosphere (95% air, 5% CO2) at 37° C. The medium was renewed every 2-3 days. Cells were passaged using standard trypsinization techniques at 80-90% confluency. The same protocol was also used to isolate and culture fibroblasts from human skin and lung tissues. Primary bladder fibroblasts were purchased from Lifeline (FC-0050) and maintained in the same fibroblast growth medium. Human brain pericytes were purchased from Cell systems (ACBRI 498) and cultured in SmGM-2 medium (Lonza, CC-3182). All experiments were carried out using cells at low cell passages (<P4) and cells were serum-starved for 24 hrs before treatment.
Colorimetric assays. The cells were treated in the absence or presence of TGF-β for 48 hrs. Quantification of total secreted collagen in the cell culture supernatant was performed using a Sirius red collagen detection kit (9062, Chondrex). […]

human primary CFs = test: Quantitative real-time PCR of cardiac-specific genes in primary CFs; format: cell-based
Description: as §4, with “All experiments were carried out using cells at low cell passages (<P4) and cells were serum-starved for 24 hrs before treatment.” left out
Quantitative real-time PCR. […] After mixing 0.2 μl of the cDNA template, 1 μl of TaqMan® primer sets (Life Technologies), 10 μl of TaqMan® Master Mix (Life Technologies), and 8.8 μl of ddH2O in the reaction system, real-time quantitative PCR was performed on the StepOne™ Real-Time PCR System (Life Technologies). […]

human iPSC-CFs [8] = test: Sirius red colorimetric assay of secreted collagen, iPSC-CFs; format: cell-based; conditions: 48 hrs
Description: Colorimetric assays. The cells were treated in the absence or presence of TGF-β for 48 hrs. Quantification of total secreted collagen in the cell culture supernatant was performed using a Sirius red collagen detection kit (9062, Chondrex). The colorimetric assay was performed according to the manufacturer's protocol.

Compound: NC(=O)c1ccc(-c2nc(-c3ccc4c(c3)OCO4)c(-c3ccccn3)[nH]2)cc1 [SB431542, 4-[4-(1,3-benzodioxol-5-yl)-5-(2-pyridinyl)-1H-imidazol-2-yl]benzamide, reference compound]
- levels of smooth muscle marker genes (ACTA2, CNN1, TAGLN, SMTN, MYH11) in iPSC-CFs (human iPSC-CFs [1]; SB added during CF differentiation, transcriptional and protein levels): negligible levels
- αSMA+ cells (quiescent state preserved) (human iPSC-CFs [1]; until passage 5, inhibitor present in fibroblast growth medium): ~5%
- effect on TGF-β-induced increase of α-SMA protein levels (human iPSC-CFs [2]; CFs from different human iPSC lines, TGF-β ± SB): abolished
- effect on TGF-β-induced upregulation of α-SMA / propagation of the α-SMA+ population (human iPSC-CFs [3]): significantly suppresses
- effect on TGF-β-induced collagen gel contraction (human iPSC-CFs [4]; TGF-β ± SB): completely abrogated
- effect on TGF-β-induced upregulation of myofibroblast markers ACTA2 and POSTN (human iPSC-CFs [5]; TGF-β ± SB): effectively inhibited

Compound: COc1cccc2c1C(=O)c1c(O)c3c(c(O)c1C2=O)C[C@@](O)(C(=O)CO)C[C@@H]3O[C@H]1C[C@H](N)[C@H](O)[C@H](C)O1 [doxorubicin]
- induction of the α-SMA+ population (pro-fibrosis phenotype) (human iPSC-CFs [3]; FIG. 5J, vs ctrl group): dose-dependent pattern; also recorded: dose-dependent induction

Compound: Cc1ccc(=O)n(-c2ccccc2)c1 [pirfenidone]
- effect on TGF-β-induced upregulation of α-SMA / propagation of the α-SMA+ population (human iPSC-CFs [3]): significantly suppresses
- effect on TGF-β-induced upregulation of α-SMA / propagation of the α-SMA+ population (human iPSC-CFs [3]; listed as Pirfenidone): dose dependent inhibitory effect

Compound: CCOC(=O)[C@H](C)C[C@@H](Cc1ccc(-c2ccccc2)cc1)NC(=O)CCC(=O)O [sacubitril]
- mRNA levels of myofibroblast markers and ECM genes in the co-cultured condition ([6]; TGF-β, 20 μM sacubitril): further decreased
- protein levels of myofibroblast markers and ECM genes in the co-cultured condition ([6]; TGF-β, 20 μM sacubitril): further decreased
- anti-fibrotic effect seen in co-culture ([6]; iPSC-CMs and iPSC-CFs co-culture): significantly enhanced
- myofibroblast marker periostin ([6]; only when added to the co-culture system): significantly decreased

Compound: atrial natriuretic peptide [ANP]
- half-life [7]: 3 min

Compound: brain natriuretic peptide [BNP]
- half-life [7]: 20 min
- α-SMA protein levels with escalating concentrations (human iPSC-CFs [2]; in the presence of TGF-β, dose-dependent manner): significantly suppressed
- mRNA levels of CF markers (PDGFRA and TCF21) (human iPSC-CFs [5]; in the presence of TGF-β): higher levels
- mRNA levels of myofibroblast markers and ECM genes (ACTA2, POSTN, COL1A1, COL3A1) (human iPSC-CFs [5]; in the presence of TGF-β): significantly lower

Compound: transforming growth factor-β [TGF-β]
- secreted collagen content (primary CFs): rise in collagen content
- expression levels of cardiac-specific genes (GATA4, TBX20, TCF21) vs vehicle-treated cells (human primary CFs): significantly downregulated
- α-SMA protein levels after treatment (human iPSC-CFs [2]; CFs from different human iPSC lines): significantly increased
- secreted collagen content (human iPSC-CFs [8]): rise in collagen content
- collagen gel contraction effect vs vehicle group (human iPSC-CFs [4]): stronger
- expression levels of ACTA2 and POSTN vs vehicle treatment (human iPSC-CFs [5]; 5 ng/ml TGFβ1, 48 hrs): significantly increased
- expression levels of ECM genes COL1A1, COL3A1, COL4A2, FN1 (human iPSC-CFs [5]; vs vehicle): significantly increased
- expression of MMP1 (human iPSC-CFs [5]; vs vehicle): downregulation
- expression of MMP2 (human iPSC-CFs [5]; vs vehicle): upregulation
- expression of TIMP1, TIMP2, TIMP3 (human iPSC-CFs [5]; vs vehicle): upregulation
- expression of proteoglycans (VCAN, CTGF, KAL1, TNC, SPARC) and focal adhesion molecules (ITGA4, ITGA5, ITGB5) (human iPSC-CFs [5]; vs vehicle): upregulated expression
